From ChEMBL document CHEMBL1201862, “PubChem BioAssay data set” (2004)
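Growth conditions: 96-well plates. Treatment: test compound, 48 hours, 5 concentrations. Analysis: linear interpolation between bracketing concentrations; unreached endpoints set to highest concentration. The concentration for 50% growth inhibition is given as GI50.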 Calls of active or inactive are those of the source. Cut-off read from the data, not from the text of the source: active = GI50 up to about 1.1 µM and inactive = higher.

Assays:
Assay in all cases: growth of human tumour cells (NCI), 48 h
NCI/ADR-RES = test system: NCI/ADR-RES
SNB-75 = test system: SNB-75
SK-MEL-5 = test system: SK-MEL-5
A549 = test system: A549
Malme-3M = test system: Malme-3M
HOP-92 = test system: HOP-92
MOLT-4 = test system: MOLT-4
BT-549 = test system: BT-549
RPMI-8226 = test system: RPMI-8226
NCI-H23 = test system: NCI-H23
SK-MEL-2 = test system: SK-MEL-2
HOP-62 = test system: HOP-62
NCI-H522 = test system: NCI-H522
M14 = test system: M14
COLO 205 = test system: COLO 205
NCI-H226 = test system: NCI-H226
DU-145 = test system: DU-145
NCI-H460 = test system: NCI-H460
Hs-578T = test system: Hs-578T
MDA-MB-231 = test system: MDA-MB-231
TK-10 = test system: TK-10
CCRF-CEM = test system: CCRF-CEM
OVCAR-5 = test system: OVCAR-5
ACHN = test system: ACHN
T47D = test system: T47D
UO-31 = test system: UO-31
EKVX = test system: EKVX
MDA-MB-435 = test system: MDA-MB-435
U-251 = test system: U-251
SF-539 = test system: SF-539
MCF7 = test system: MCF7
MDA-N = test system: MDA-N
UACC-257 = test system: UACC-257
HT-29 = test system: HT-29
OVCAR-3 = test system: OVCAR-3
SK-MEL-28 = test system: SK-MEL-28
A498 = test system: A498
HCT-15 = test system: HCT-15
KM12 = test system: KM12
HL-60 = test system: HL-60
SR = test system: SR
K562 = test system: K562
PC-3 = test system: PC-3
SNB-19 = test system: SNB-19
SF-295 = test system: SF-295
LOX IMVI = test system: LOX IMVI
HCT-116 = test system: HCT-116
UACC-62 = test system: UACC-62
HCC 2998 = test system: HCC 2998
IGROV-1 = test system: IGROV-1
SN12C = test system: SN12C
SF-268 = test system: SF-268
RXF 393 = test system: RXF 393
786-0 = test system: 786-0
SW-620 = test system: SW-620
OVCAR-8 = test system: OVCAR-8
OVCAR-4 = test system: OVCAR-4
SK-OV-3 = test system: SK-OV-3

Compound: C[C@]12CC[C@H]3[C@@H](CCC4=CC(=O)CC[C@@H]43)[C@@H]1CC[C@]2(O)C(N)=O
- GI50 (NCI/ADR-RES): > 100 µM (inactive)
- GI50 (SNB-75): > 100 µM (inactive)
- GI50 (SK-MEL-5): > 100 µM (inactive)
- GI50 (A549): > 100 µM (inactive)
- GI50 (Malme-3M): > 100 µM (inactive)
- GI50 (HOP-92): > 100 µM (inactive)
- GI50 (MOLT-4): > 100 µM (inactive)
- GI50 (BT-549): > 100 µM (inactive)
- GI50 (RPMI-8226): > 100 µM (inactive)
- GI50 (NCI-H23): > 100 µM (inactive)
- GI50 (SK-MEL-2): > 100 µM (inactive)
- GI50 (HOP-62): > 100 µM (inactive)
- GI50 (NCI-H522): > 100 µM (inactive)
- GI50 (M14): > 100 µM (inactive)
- GI50 (COLO 205): > 100 µM (inactive)
- GI50 (NCI-H226): > 100 µM (inactive)
- GI50 (DU-145): > 100 µM (inactive)
- GI50 (NCI-H460): > 100 µM (inactive)
- GI50 (Hs-578T): > 100 µM (inactive)
- GI50 (MDA-MB-231): > 100 µM (inactive)
- GI50 (TK-10): > 100 µM (inactive)
- GI50 (CCRF-CEM): > 100 µM (inactive)
- GI50 (OVCAR-5): > 100 µM (inactive)
- GI50 (ACHN): > 100 µM (inactive)
- GI50 (T47D): > 100 µM (inactive)
- GI50 (UO-31): > 100 µM (inactive)
- GI50 (EKVX): > 100 µM (inactive)
- GI50 (MDA-MB-435): > 100 µM (inactive)
- GI50 (U-251): > 100 µM (inactive)
- GI50 (SF-539): > 100 µM (inactive)
- GI50 (MCF7): > 100 µM (inactive)
- GI50 (MDA-N): > 100 µM (inactive)
- GI50 (UACC-257): > 100 µM (inactive)
- GI50 (HT-29): > 100 µM (inactive)
- GI50 (OVCAR-3): > 100 µM (inactive)
- GI50 (SK-MEL-28): > 100 µM (inactive)
- GI50 (A498): > 100 µM (inactive)
- GI50 (HCT-15): > 100 µM
- GI50 (KM12): > 100 µM (inactive)
- GI50 (HL-60): > 100 µM (inactive)
- GI50 (SR): > 100 µM (inactive)
- GI50 (K562): > 100 µM (inactive)
- GI50 (PC-3): > 100 µM (inactive)
- GI50 (SNB-19): > 100 µM (inactive)
- GI50 (SF-295): > 100 µM (inactive)
- GI50 (LOX IMVI): > 100 µM (inactive)
- GI50 (HCT-116): > 100 µM (inactive)
- GI50 (UACC-62): > 100 µM (inactive)
- GI50 (HCC 2998): > 100 µM (inactive)
- GI50 (IGROV-1): > 100 µM (inactive)
- GI50 (SN12C): > 100 µM (inactive)
- GI50 (SF-268): > 100 µM (inactive)
- GI50 (RXF 393): > 100 µM (inactive)
- GI50 (786-0): > 100 µM (inactive)
- GI50 (SW-620): > 100 µM (inactive)
- GI50 (OVCAR-8): > 100 µM (inactive)
- GI50 (OVCAR-4): > 100 µM (inactive)
- GI50 (SK-OV-3): > 100 µM (inactive)

Compound: C/C(=N/NC(=S)Nc1ccccc1C)c1ccccn1
- GI50 (NCI/ADR-RES): 0.0322 µM (active)
- GI50 (SNB-75): 0.583 µM (active)
- GI50 (SK-MEL-5): 0.0766 µM (active)
- GI50 (A549): 0.0855 µM (active)
- GI50 (Malme-3M): 1.6 µM (inactive)
- GI50 (HOP-92): 1.09 µM (active)
- GI50 (MOLT-4): 0.0175 µM (active)
- GI50 (BT-549): 3.14 µM (inactive)
- GI50 (RPMI-8226): < 0.0188 µM (active)
- GI50 (NCI-H23): < 0.0189 µM (active)
- GI50 (SK-MEL-2): 2.65 µM (inactive)
- GI50 (HOP-62): 0.0299 µM (active)
- GI50 (NCI-H522): 0.583 µM (active)
- GI50 (M14): < 0.0258 µM (active)
- GI50 (COLO 205): < 0.0196 µM (active)
- GI50 (NCI-H226): 0.075 µM (active)
- GI50 (DU-145): 1.63 µM (inactive)
- GI50 (NCI-H460): 0.0818 µM (active)
- GI50 (Hs-578T): 15.7 µM (inactive)
- GI50 (MDA-MB-231): < 0.0216 µM (active)
- GI50 (TK-10): 0.259 µM (active)
- GI50 (CCRF-CEM): 0.0206 µM (active)
- GI50 (OVCAR-5): 0.0843 µM (active)
- GI50 (ACHN): 0.0562 µM (active)
- GI50 (T47D): < 0.0475 µM (active)
- GI50 (UO-31): 0.43 µM (active)
- GI50 (EKVX): 0.167 µM (active)
- GI50 (MDA-MB-435): 0.632 µM (active)
- GI50 (U-251): 0.0571 µM (active)
- GI50 (SF-539): 1.01 µM (active)
- GI50 (MCF7): 0.0164 µM (active)
- GI50 (MDA-N): 0.807 µM (active)
- GI50 (UACC-257): < 0.0208 µM (active)
- GI50 (HT-29): 0.0726 µM (active)
- GI50 (OVCAR-3): 0.0144 µM (active)
- GI50 (SK-MEL-28): 1.08 µM (active)
- GI50 (A498): 1.67 µM (inactive)
- GI50 (HCT-15): 0.0228 µM
- GI50 (KM12): 0.173 µM (active)
- GI50 (HL-60): 0.0143 µM (active)
- GI50 (SR): 0.0229 µM (active)
- GI50 (K562): < 0.0145 µM (active)
- GI50 (PC-3): < 0.0153 µM (active)
- GI50 (SNB-19): 2.43 µM (inactive)
- GI50 (SF-295): 0.175 µM (active)
- GI50 (LOX IMVI): < 0.0149 µM (active)
- GI50 (HCT-116): < 0.0152 µM (active)
- GI50 (UACC-62): 0.232 µM (active)
- GI50 (HCC 2998): 6.27 µM (inactive)
- GI50 (IGROV-1): < 0.0182 µM (active)
- GI50 (SN12C): 0.269 µM (active)
- GI50 (SF-268): 0.14 µM (active)
- GI50 (RXF 393): 0.682 µM (active)
- GI50 (786-0): 0.0627 µM (active)
- GI50 (SW-620): < 0.0177 µM (active)
- GI50 (OVCAR-8): 0.107 µM (active)
- GI50 (OVCAR-4): 0.279 µM (active)
- GI50 (SK-OV-3): 0.052 µM (active)
